# Patent publication US10016382B2, “Method for decreasing skeletal muscle damage and/or oxidative stress in mammals” (LONZA INC., priority 2014, dated 2018)
# “And” between values parts separate entries of the source, which are not always exact repeats. Equal values may be shown once.
# Tested on: Labrador Retrievers
# Test: Heart rate and body temperature recovery following 15 mile run, Example 1
# Assay type: in vivo, dog
# Conditions: Ex.1, 250 mg/d; for Dog body temperature after run / Heartrate after run / Temperature before run / Heartrate before run: mean ± SEM; for Temperature before run / Heartrate before run: before 15 mile run
# Text: Each test dog wore an Actical activity monitor from Philips Respironics on a collar for the short higher intensity runs and also wore an Actical activity monitor for the weekly longer endurance runs. The activity data was downloaded into spread sheets along with each dogs identity. Twenty four hours after each long run during the 13 wk running program each of the dogs were scored by kennel staff for soreness or any type of lameness The exercise program was decreased in a tapering program during wk 11 and 12 to allow the dogs to rest for the final long run completed on wk 13. Pre-run serum samples from each test dog was taken 24 hr before the last endurance run. The heart rate and basal body temperature was determined for each test dog prior to the last long endurance run. Each performance dog also wore the Actical activity monitor during the last endurance run. The dogs were put through a 15 mile run that included mud, water, tall grass, and swimming. The dogs were timed when they completed the course. The dogs were encouraged by kennel staff that rode along in a 4 wheel all terrain type vehicle during all of the endurance runs. […] Immediately following the 15 mile endurance run, each dog was placed in a kennel and evaluated for recovery time for body temperature (every 15 minutes for 2 hr) and heart rate (every 2 minutes for 14 minutes). Twenty four hours after test dogs ran the last 15 endurance run, post-run serum samples were taken to evaluate biomarkers for muscle damage and antioxidant status. Each test dog was also scanned with the GE Prodigy DEXA to determine body composition change that occurred during the course of the 13 wk study. The dogs were timed during the last 15 mile run at the end of the study. The body temperature and heart rate for each dog was determined just prior to the long 15 mile run. The heart rate measurements were determined manually and body temperature was determined by using a rectal thermometer. Each staff member was responsible for determining the time required to complete the run for one of the test dogs in each set. Each staff member was also responsible for determining the heart rate and body temperature of their specific assigned dog immediately upon their return after the run. The heart rate was determined every 2 minutes for a fourteen minute period following the last long run and the body temperature was determined every 15 minute for a two hour period after completing the long run. The heart rate and body temperature was determined both before and after to evaluate the fitness and time required after run to reach basal HR and body temperatures.
# [1] = 0 min after 15 mile run, both sexes
# [2] = 0 min after 15 mile run, females
smiles,measurement,setting,value
C[N+](C)(C)C[C@H](O)CC(=O)[O-] [L-carnitine],Dog body temperature after run,[1],103.7 ± 0.3 n = 19 ° F.
same,Heartrate after run,[1],159 and 159 ± 4 n = 16
same,Dog body temperature after run,[2],103.6 ± 0.5 n = 9 ° F.
same,Heartrate after run,[2],155 ± 5 n = 8
same,Dog body temperature after run,"0 min after 15 mile run, males",103.8 ± 0.3 n = 10 ° F.
same,Heartrate after run,"0 min after 15 mile run, males",164 ± 6 n = 11
same,Heartrate after run,"2 min after 15 mile run, both sexes",146 ± 5 n = 16
same,Heartrate after run,"2 min after 15 mile run, females",139 ± 6 n = 8
same,Heartrate after run,"2 min after 15 mile run, males",149 ± 6 n = 11
same,Heartrate after run,"4 min after 15 mile run, both sexes",131 ± 5 n = 16
same,Heartrate after run,"4 min after 15 mile run, females",123 ± 6 n = 8
same,Heartrate after run,"4 min after 15 mile run, males",143 ± 8 n = 11
same,Heartrate after run,"6 min after 15 mile run, both sexes",123 ± 5 n = 16
same,Heartrate after run,"6 min after 15 mile run, females",120 ± 6 n = 8
same,Heartrate after run,"6 min after 15 mile run, males",131 ± 6 n = 11
same,Heartrate after run,"8 min after 15 mile run, both sexes",114 ± 4 n = 16
same,Heartrate after run,"8 min after 15 mile run, females",111 ± 6 n = 8
same,Heartrate after run,"8 min after 15 mile run, males",125 ± 6 n = 11
same,Heartrate after run,"10 min after 15 mile run, both sexes",113 ± 5 n = 16
same,Heartrate after run,"10 min after 15 mile run, females",109 ± 5 n = 8
same,Heartrate after run,"10 min after 15 mile run, males",120 ± 6 n = 11
same,Heartrate after run,"12 min after 15 mile run, both sexes",107 ± 4 n = 16
same,Heartrate after run,"12 min after 15 mile run, females",107 ± 7 n = 7
same,Heartrate after run,"12 min after 15 mile run, males",112 ± 5 n = 11
same,Heartrate after run,"14 min after 15 mile run, both sexes",101 ± 4 n = 16
same,Heartrate after run,"14 min after 15 mile run, females",103 ± 7 n = 7
same,Heartrate after run,"14 min after 15 mile run, males",102 ± 5 n = 10
same,Dog body temperature after run,"15 min after 15 mile run, both sexes",102.6 ± 0.2 n = 20 ° F.
same,Dog body temperature after run,"15 min after 15 mile run, females",102.6 ± 0.4 n = 9 ° F.
same,Dog body temperature after run,"15 min after 15 mile run, males",102.5 ± 0.2 n = 11 ° F.
same,Dog body temperature after run,"30 min after 15 mile run, both sexes",101.6 ± 0.1 n = 20 ° F.
same,Dog body temperature after run,"30 min after 15 mile run, females",101.3 ± 0.2 n = 9 ° F.
same,Dog body temperature after run,"30 min after 15 mile run, males",101.9 ± 0.1 n = 11 ° F.
same,Dog body temperature after run,"45 min after 15 mile run, both sexes",101.1 ± 0.1 n = 20 ° F.
same,Dog body temperature after run,"45 min after 15 mile run, females",101 ± 0.2 n = 9 ° F.
same,Dog body temperature after run,"45 min after 15 mile run, males",101.1 ± 0.1 n = 11 ° F.
same,Dog body temperature after run,"60 min after 15 mile run, both sexes",100.9 ± 0.2 n = 20 ° F.
same,Dog body temperature after run,"60 min after 15 mile run, females",100.8 ± 0.3 n = 9 ° F.
same,Dog body temperature after run,"60 min after 15 mile run, males",101 ± 0.2 n = 11 ° F.
same,Dog body temperature after run,"75 min after 15 mile run, both sexes",100.7 ± 0.2 n = 19 ° F.
same,Dog body temperature after run,"75 min after 15 mile run, females",100.7 ± 0.3 n = 8 ° F.
same,Dog body temperature after run,"75 min after 15 mile run, males",100.7 ± 0.2 n = 11 ° F.
same,Dog body temperature after run,"90 min after 15 mile run, both sexes",100.7 ± 0.2 n = 20 ° F.
same,Dog body temperature after run,"90 min after 15 mile run, females",100.6 ± 0.3 n = 9 ° F.
same,Dog body temperature after run,"90 min after 15 mile run, males",100.8 ± 0.2 n = 11 ° F.
same,Dog body temperature after run,"105 min after 15 mile run, both sexes",100.4 ± 0.2 n = 19 ° F.
same,Dog body temperature after run,"105 min after 15 mile run, females",100.2 ± 0.4 n = 8 ° F.
same,Dog body temperature after run,"105 min after 15 mile run, males",100.5 ± 0.2 n = 11 ° F.
same,Dog body temperature after run,"120 min after 15 mile run, both sexes",100.7 ± 0.2 n = 14 ° F.
same,Dog body temperature after run,"120 min after 15 mile run, females",100.7 ± 0.4 n = 4 ° F.
same,Dog body temperature after run,"120 min after 15 mile run, males",100.8 ± 0.2 n = 10 ° F.
same,Time to get heart rate back to basal levels,"after 15 mile run, both treatments required this time",approximately 14 minutes
same,Temperature before run,both sexes,101.3 ± 0.2 n = 20 ° F.
same,Heartrate before run,females,89 ± 3 n = 9
same,Temperature before run,females,101.0 ± 0.1 n = 9 ° F.
same,Heartrate before run,males,89 ± 3 n = 11
same,Temperature before run,males,101.7 ± 0.4 n = 11 ° F.
same,Heart rate and body temperature recovery vs control,following the final long run,not different
same,Time back to pre-run core temperature,"males, following 15 mile run, both groups",30 to 45 min
